12 compounds from ChEMBL document CHEMBL5724914, “Linking interpersonal differences in gut microbiota composition and drug biotransformation activity” (2024) can be followed below.

Series [1] can be described thus: The drug is tested on WLS-240 corresponding to human gut metagenome with ENA study accession number: PRJEB37062 and ENA sample accession number: ERS12561773 for biotransformation under anaerobic condition. The drug concentrations were measured over 9 timepoints collected between 0 and 24 hours of incubation by liquid-chromatography-coupled mass spectrometry (LC–MS). Conditions: 2 µM.

For series [2] the following is noted: human gut metagenome, 24 h, 2 µM.
Series [3] in a line: The drug is tested on WLS-069 corresponding to human gut metagenome with ENA study accession number: PRJEB37062 and ENA sample accession number: ERS12561748 for biotransformation under anaerobic condition. The drug concentrations were measured over 9 timepoints collected between 0 and 24 hours of incubation by liquid-chromatography-coupled mass spectrometry (LC–MS). As to conditions: 2 µM.

The nature of series [4]: The drug is tested on WLS-006 corresponding to human gut metagenome with ENA study accession number: PRJEB37062 and ENA sample accession number: ERS12561741 for biotransformation under anaerobic condition. The drug concentrations were measured over 9 timepoints collected between 0 and 24 hours of incubation by liquid-chromatography-coupled mass spectrometry (LC–MS). As to conditions: 2 µM.

For series [5] the following is noted: human gut metagenome, 24 h, 2 µM. The source holds these as a separate data set.
Series [6] is described as follows: The drug is tested on WLS-073 corresponding to human gut metagenome with ENA study accession number: PRJEB37062 and ENA sample accession number: ERS12561749 for biotransformation under anaerobic condition. The drug concentrations were measured over 9 timepoints collected between 0 and 24 hours of incubation by liquid-chromatography-coupled mass spectrometry (LC–MS). Conditions: 2 µM.

Series [7] is described as follows: The drug is tested on WLS-170 corresponding to human gut metagenome with ENA study accession number: PRJEB37062 and ENA sample accession number: ERS12561762 for biotransformation under anaerobic condition. The drug concentrations were measured over 9 timepoints collected between 0 and 24 hours of incubation by liquid-chromatography-coupled mass spectrometry (LC–MS). As to conditions: 2 µM.

For series [8] the following is noted: human gut metagenome, 24 h, 2 µM. This is another data set of the same source.
For series [9] the following is noted: human gut metagenome, 24 h, 2 µM. This is another data set of the same source.
Also: call rule not given here.

As to `CC(C(=O)O)c1ccc2c(c1)Cc1cccnc1O2` (stereo not drawn) [PRANOPROFEN], the “Bacterial Biotransformation” value in series [1], in series [2], in series [3], in series [4], in series [5] and in [6] was “Compound metabolized” each time. The “Bacterial Biotransformation” value in series [7], in [8] and in series [9] was “Compound metabolized” throughout.
`CCc1nc(N)nc(N)c1-c1ccc(Cl)cc1` [PYRIMETHAMINE]: the “Bacterial Biotransformation” value in series [1] was “Compound metabolized”; in series [2], “Compound NOT metabolized”; in series [3], “Compound NOT metabolized”; in series [4], “Compound NOT metabolized”; in series [5] it was “Compound NOT metabolized”; in series [6] it was “Compound NOT metabolized”. For the same compound, the “Bacterial Biotransformation” value in series [7], in [8] and in series [9] was “Compound NOT metabolized” throughout.
On to `COc1ccccc1OCC(O)CN1CCN(CC(=O)Nc2c(C)cccc2C)CC1` (stereo not drawn) [RANOLAZINE], for which the “Bacterial Biotransformation” value in [1], in series [2], in series [3], in series [4], in [5] and in series [6] was “Compound NOT metabolized” each time. The “Bacterial Biotransformation” value in series [7], in series [8] and in series [9] was “Compound NOT metabolized” throughout.
Turning to `CCCc1nn(C)c2c(=O)[nH]c(-c3cc(S(=O)(=O)N4CCN(C)CC4)ccc3OCC)nc12.O=C(O)CC(O)(CC(=O)O)C(=O)O` [SILDENAFIL CITRATE], the “Bacterial Biotransformation” value in series [1] was “Compound metabolized”; in series [2], “Compound NOT metabolized”; in series [3], “Compound NOT metabolized”; in series [4], “Compound metabolized”; in series [5], “Compound NOT metabolized”; in series [6] it was “Compound NOT metabolized”. For the same compound, the results for the “Bacterial Biotransformation” value in series [7], in series [8] and in series [9] were “Compound metabolized”, “Compound NOT metabolized” and “Compound NOT metabolized”, respectively.
`COc1ccc2[nH]c([S+]([O-])Cc3ncc(C)c(OC)c3C)nc2n1` (stereo not drawn) [TENATOPRAZOLE]: the “Bacterial Biotransformation” value in series [1], in series [2], in series [3], in series [4], in series [5] and in series [6] was “Compound metabolized” throughout. Moreover, the “Bacterial Biotransformation” value in series [7], in [8] and in series [9] was “Compound NOT metabolized” throughout.
For `CN1C(C(=O)Nc2ccccn2)=C(O)c2sccc2S1(=O)=O` [TENOXICAM], the “Bacterial Biotransformation” value in series [1], in series [2], in [3], in series [4], in [5] and in series [6] was “Compound NOT metabolized” each time. For the same compound, the “Bacterial Biotransformation” value in [7], in series [8] and in [9] was “Compound NOT metabolized” each time.
For `CN1CCN(CC/C=C2/c3ccccc3Sc3ccc(S(=O)(=O)N(C)C)cc32)CC1` [THIOTHIXENE], the “Bacterial Biotransformation” value in series [1], in [2], in series [3], in [4], in series [5] and in series [6] was “Compound metabolized” each time. Also, the “Bacterial Biotransformation” value in series [7], in series [8] and in series [9] was “Compound metabolized” in each case.
`O=c1n(CCCN2CCN(c3cccc(Cl)c3)CC2)nc2ccccn12` [TRAZODONE]: the “Bacterial Biotransformation” value in series [1] is “Compound metabolized”; in series [2], “Compound NOT metabolized”; in [3], “Compound metabolized”; in series [4], “Compound metabolized”; in series [5], “Compound metabolized”; in series [6] it was “Compound metabolized”. Also, the “Bacterial Biotransformation” value in series [7] was “Compound NOT metabolized”; in series [8], “Compound metabolized”; in series [9] it was “Compound NOT metabolized”.
Regarding `OC(CCN1CCCCC1)(c1ccccc1)C1CCCCC1` (stereo not drawn) [TRIHEXYPHENIDYL], the “Bacterial Biotransformation” value in [1] was “Compound metabolized”; in series [2], “Compound NOT metabolized”; in [3] it was “Compound metabolized”; in series [4] it was “Compound metabolized”; in [5] it was “Compound metabolized”; in [6], “Compound metabolized”. For the same compound, the “Bacterial Biotransformation” value is on record as “Compound metabolized” in series [7], “Compound metabolized” in [8] and “Compound NOT metabolized” in series [9].
On to `Cc1ccc(/C(=C\CN2CCCC2)c2ccccn2)cc1` [TRIPROLIDINE], for which the “Bacterial Biotransformation” value is reported as “Compound NOT metabolized” in series [1]; “Compound NOT metabolized” in series [2]; “Compound NOT metabolized” in series [3]; “Compound metabolized” in [4]; “Compound NOT metabolized” in series [5]; “Compound NOT metabolized” in series [6]. In addition, the “Bacterial Biotransformation” value is “Compound metabolized” in [7], “Compound NOT metabolized” in series [8] and “Compound NOT metabolized” in series [9].
As to `Cc1cn([C@H]2C[C@H](N=[N+]=[N-])[C@@H](CO)O2)c(=O)[nH]c1=O` [ZIDOVUDINE], the “Bacterial Biotransformation” value in series [1] is given as “Compound NOT metabolized”; in series [2], “Compound NOT metabolized”; in series [3], “Compound NOT metabolized”; in series [4], “Compound metabolized”; in [5] it was “Compound NOT metabolized”; in series [6], “Compound NOT metabolized”. The “Bacterial Biotransformation” value in series [7], in series [8] and in [9] was “Compound NOT metabolized” each time.
In the case of `CS(=O)(=O)O.O.O.O.O=C1Cc2cc(CCN3CCN(c4nsc5ccccc45)CC3)c(Cl)cc2N1` [ZIPRASIDONE MESYLATE], the “Bacterial Biotransformation” value in [1] is on record as “Compound metabolized”; in series [2] it was “Compound NOT metabolized”; in series [3], “Compound metabolized”; in series [4], “Compound metabolized”; in series [5], “Compound NOT metabolized”; in series [6], “Compound metabolized”. Moreover, the “Bacterial Biotransformation” value in series [7] is on record as “Compound metabolized”; in [8], “Compound metabolized”; in series [9] it was “Compound NOT metabolized”.
